For 2 compounds, Activity results are on record in ChEMBL document CHEMBL3045775, “Methyl jasmonate-induced suppression of anthracnose rot in tomato fruit” (Crop Prot, 2007).

The structures appear in SMILES notation. Calls of active or inactive are those of the source. No cut-off for these calls is given here.

For data set [1], the system named is Colletotrichum coccodes. Nature of the data set: Antifungal activity against Colletotrichum coccodes infected tomato fruit assessed as decrease in fruit cracking at 100% v/v incubated for 7 days post-inoculation relative to control. The format is functional, organism-based.
For data set [2], the system named is Colletotrichum coccodes. Nature of the data set: Antifungal activity against Colletotrichum coccodes assessed as colony area at 44.8 ul/l inoculated on medium pretreated with compound for 7 days followed by compound wash-out measured after 7 days (5.98 +/- 0.36 cm2). The format is functional.
The test system of data set [3] is Colletotrichum coccodes. Nature of the data set: Induction of Colletotrichum coccodes growth infected tomato fruit assessed as fruit cracking at 100% v/v incubated for 7 days post-inoculation relative to control. The format is organism-based. Conditions: in vivo, 168 h.
The subject of data set [4] is Colletotrichum coccodes. Nature of the data set: Antifungal activity against Colletotrichum coccodes infected tomato fruit assessed as spore production at 44.8 ul/l inoculated on fruit pre-treated with compound for 7 days measured after 9 days (reference value: 11.2 +/- 4.29 10^5/ml). The format is functional.
Data set [5] has as its system Colletotrichum coccodes. Nature of the data set: Antifungal activity against Colletotrichum coccodes assessed as spore germination at 44.8 ul/l incubated for 24 hr post-inoculation (reference value: 100%). The format is functional.
For data set [6], the system named is Colletotrichum coccodes. Nature of the data set: Antifungal activity against Colletotrichum coccodes assessed as colony area at 44.8 ul/l incubated for 7 days post-inoculation (reference value: 9.55 +/- 0.25 cm2). The format is functional.
Data set [7] has as its system Colletotrichum coccodes. Nature of the data set: Antifungal activity against Colletotrichum coccodes infected tomato fruit assessed as suppression in lesion at 41.8 ul/l incubated for 20 min followed by compound wash out measured after 6 days relative to control. The format is functional, organism-based.
For data set [8], the system named is Colletotrichum coccodes. Nature of the data set: Antifungal activity against Colletotrichum coccodes infected tomato fruit assessed as spore germination at 44.8 ul/l inoculated on fruit pre-treated with compound for 7 days followed by 7 days incubation measured 24 hr post spore-inoculation on medium (reference value: 88.8 +/- 5.19%). The format is functional.

In data set [9] the test system is Colletotrichum coccodes. Nature of the data set: Antifungal activity against Colletotrichum coccodes infected tomato fruit assessed as spore germination at 44.8 ul/l incubated for 7 days post-inoculation followed by spore inoculation on medium measured after 24 hr (reference value: 96.5 +/- 2.66%). The format is functional.
Data set [10] relates to Colletotrichum coccodes. Nature of the data set: Antifungal activity against Colletotrichum coccodes infected tomato fruit assessed as suppression in lesion at 41.8 ul/l inoculated on fruit pretreated with compound for 20 min measured after 9 days relative to control. The format is functional.
Data set [11] has as its system Colletotrichum coccodes. Nature of the data set: Antifungal activity against Colletotrichum coccodes infected tomato fruit assessed as lesion area at 44.8 ul/l incubated for 7 days post-inoculation (reference value: 1.64 +/- 0.62 cm2). The format is functional.
Data set [12] concerns Colletotrichum coccodes. Nature of the data set: Antifungal activity against Colletotrichum coccodes infected tomato fruit assessed as spore production at 44.8 ul/l incubated for 9 days post-inoculation (reference value: 1.6 +/- 0.92 10^5/ml). The format is functional.
Data set [13] has as its system Colletotrichum coccodes. Nature of the data set: Antifungal activity against Colletotrichum coccodes assessed as spore production at 44.8 ul/l inoculated on medium pretreated with compound for 7 days followed by compound wash-out measured after 9 days (7.7 +/- 4.15 10^5/ml). The format is functional.
Data set [14] relates to Colletotrichum coccodes. Nature of the data set: Antifungal activity against Colletotrichum coccodes assessed as spore germination at 44.8 ul/l inoculated on medium pretreated with compound for 24 hr followed by compound wash-out measured after 24 hr (100%). The format is functional.
Data set [15] deals with Colletotrichum coccodes. Nature of the data set: Antifungal activity against Colletotrichum coccodes infected tomato fruit assessed as lesion area at 44.8 ul/l inoculated on fruit pretreated with compound for 7 days measured after 7 days (reference value: 4.33 +/- 0.6 cm2). The format is functional.
For data set [16], the system named is Colletotrichum coccodes. Nature of the data set: Antifungal activity against Colletotrichum coccodes assessed as spore production at 44.8 ul/l incubated for 9 days post-inoculation (reference value: 7.1 +/- 2.44 10^5/ml). The format is functional.

As for `Cl`, the outcome in the data set with Colletotrichum coccodes [1] was Active.
`CC/C=C\CC1C(=O)CCC1CC(=O)OC` (configuration not stated) [METHYL JASMONATE]: the Activity in the data set on Colletotrichum coccodes [2] was 4.55 cm2; in the data set on Colletotrichum coccodes [3] it was 23%; in the data set with Colletotrichum coccodes [4], 7.7 ×10⁵ /ml; with Colletotrichum coccodes [5], 99.5%; in the data set with Colletotrichum coccodes [6], 8.18 cm2; in the data set on Colletotrichum coccodes [8], 55.2%. Moreover, the Activity in the data set on Colletotrichum coccodes [9] was found to be 51.6%; with Colletotrichum coccodes [10], 20%; with Colletotrichum coccodes [11] it was 2.79 cm2; with Colletotrichum coccodes [12], 1 ×10⁵ /ml; in the data set with Colletotrichum coccodes [13], 7.6 ×10⁵ /ml; in the data set on Colletotrichum coccodes [14], 99%. The Activity in the data set with Colletotrichum coccodes [15] was 4.74 cm2; in the data set on Colletotrichum coccodes [16] it was 6.9 ×10⁵ /ml. Moreover, the result in the data set on Colletotrichum coccodes [1] was Active. For the same compound, the outcome in the data set on Colletotrichum coccodes [7] was inactive.
